{
  "source": "patent US11752156B2",
  "about": "“Compositions and methods for treating hyperproliferative skin disorders” (Athenex HK Innovative Limited, priority 2018, dated 2023)",
  "key": {"[1]": {"system": "human keratinocyte cell line", "test": "inhibition of human keratinocyte growth, individual dose response, 72 hours, MTT assay", "type": "cell-based", "details": "72 hour exposure", "experimental": "FIG. 4: Inhibition of human keratinocyte growth versus KX01 concentration (treatment duration: 72 hours; cell growth measured using the MTT assay). […] FIG. 5: Inhibition of human keratinocyte growth versus calcipotriol concentration (treatment duration: 72 hours; cell growth measured using the MTT assay). […] A human keratinocyte cell line was used in these studies."}, "[2]": {"system": "human keratinocyte cell line", "test": "combinatorial dose response surface study of cell viability (PSI), KX01 and calcipotriol", "type": "cell-based", "details": "model estimate", "excerpt": "FIG. 6: Dose response surface of cell viability versus calcipotriol concentration versus KX01 concentration. Synergistic combinations of calcipotriol and KX01 are below the surface of additivity (indicating enhanced inhibition of growth), and antagonistic combinations are above the surface of additivity (indicative of reduced inhibition of growth). Individual dose response curves for KX01 and calcipotriol as determined above can be used to generate dose response surfaces representative of the additive effects of these compounds on keratinocyte growth. […] A PSI value of 1 corresponds to an additive effect. A PSI value of less than 1 indicates a synergistic effect, and a PSI value of greater than 1 indicates an antagonistic effect. Cell viability was measured in a number of experiments. In Experiment 1, the concentrations of calcipotriol were: 0, 3, 9, 27, 81, and 243 nM, and the concentrations of KX01 were: 0, 5, 10, 20, 40, 60, 80, and 160 nM. In Experiment 2, the concentrations of calcipotriol were: 0, 5, 10, 20, 40, 80, 160, 320, and 1280 nM, and the concentrations of KX01 were: 1, 3, 9, 27, and 81 nM. […] It is notable that unexpected synergy is observed across a range of concentrations and combinations. Tables 7, 8, and 9 show the results for determination of individual IC50 and maximum inhibitory concentration values for KX01 and calcipotriol, as well as the PSI value for the drug combination. […]"}, "[3]": {"system": "CCD-1106 KERTr cells", "test": "FITC annexin V / PI apoptosis assay by flow cytometry, 24 hours", "type": "cell-based, human", "details": "for late apoptic cells: 24 hours", "experimental": "In addition to growth inhibition, Inventors also investigated the effect of KX01 on apoptosis in keratinocytes. CCD-1106 KERTr cells (1×10^6) were seeded in 60 mm dishes and treated with test compounds at varying concentrations (e.g. KX01: 20 to 500 nM; calcipotriol 50 to 1000 nM) for 24 hours. Cell apoptosis was assessed by using a FITC annexin V apoptosis detection kit (BD Biosciences™) according to manufacturer's instruction. Briefly, cells were collected in 1× binding buffer and incubated with fluorescein isothiocyanate (FITC)-conjugated annexin V and propidium iodide (PI) for 15 minutes at room temperature in the dark, followed by flow cytometry analysis using a LSRFortessa™ flow cytometer (BD Biosciences™)."}, "[4]": {"system": "CCD 1106 KERTr human keratinocyte cell line", "test": "MTT cell proliferation assay, 72 hours, dark or blue light, keratinocytes", "type": "cell-based", "details": "for inhibition at 0.005 µM / inhibition at 0.02 µM / inhibition at 0.08 µM / inhibition at 0.32 µM / inhibition at 1.28 µM: Homo sapiens, read-out: growth inhibition relative to untreated control", "experimental": "The effects of combined treatment with KX01, a vitamin D derivative, and/or blue/UV light exposure were characterized using a cell proliferation assay. Cell proliferation was assessed by using an MTT assay. Cells were seeded in 96-well plate (3,000-5,000 cells per well) and treated with test compounds at varying concentrations (e.g. KX01: 5 to 80 nM; calcipotriol 5 to 1,280 nM) for 72 hours, either in the dark or exposed to blue light irradiation (for 2, 4, or 6 hours). To each well, 10 μl of 3-(4,5-dimethylthiazol-2-yl)-2,5-diphenyltetrazolium bromide (MTT) (RPI Corporation™) solution (5 mg/ml in PBS) was added and incubated at 37° C. for 3 hours. Next, 100 μl of 20% SDS was added to each well. After overnight incubation at 37° C., the absorbance in each well was measured at 570 nm in a microplate reader (Molecular Devices™). The cell growth curve and GI50s were calculate using GraphPad Prism™ 5 software. Tables 13 and 14 show the results of cell growth inhibition studies (expressed as a percentage relative to control cell growth) for treatment with either KX01 or calcipotriol in combination with exposure to blue light. […] The percentage of growth inhibition relative to untreated control is shown. […] The percentage of growth inhibition relative to untreated control is shown. Tables 15 to 18 show the effects of combined treatment with KX01, calcipotriol, and exposure to blue light at 0 hours, 2 hours, 4 hours, and 6 hours of light exposure (respectively). Values are expressed as the percentage of growth inhibition relative to cells grown under control conditions (0 hours blue light, [KX01]=0, [calcipotriol]=0). […] Results are shown below in Tables 27 to Table 30, which show results from 0, 2, 4, and 6 hours of blue light exposure (respectively). Values are expressed as the percentage of growth inhibition relative to cells grown under control conditions (0 hours blue light, [KX01]=0, [calcipotriol]=0)."}},
  "note": "Several values for one entry are separate records, joined by “and”; a condition that tells them apart may be missing. Equal values may be shown once. Read-outs that look alike come from different tables or passages of the source.",
  "data": [
    {"smiles": "C=C1/C(=C\\C=C2/CCC[C@]3(C)[C@@H]([C@H](C)/C=C/[C@@H](O)C4CC4)CC[C@@H]23)C[C@@H](O)C[C@@H]1O", "note": "[Calcipotriol, calcipotriol]", "values": [
      {"measurement": "IC50", "setting": "[1]", "result": 95.5, "unit": "nM"},
      {"measurement": "IC50", "setting": "[2]; Homo sapiens, Keratinocyte", "result": 112, "unit": "nM"},
      {"measurement": "IC50", "setting": "[2]", "result": 59.3, "unit": "nM"},
      {"measurement": "Max Inhibition", "setting": "[2]", "result": "0.474 and 0.36 and 0.439"},
      {"measurement": "effect on apoptosis compared with control cells", "setting": "[3]; 200 nm calcipotriol", "result": "not distinguishable from that of control cells receiving no drug treatment"},
      {"measurement": "late apoptic cells", "setting": "[3]; calcipotriol 50 nM", "result": 2.41, "unit": "%"},
      {"measurement": "late apoptic cells", "setting": "[3]; calcipotriol 200 nM", "result": 2.06, "unit": "%"},
      {"measurement": "late apoptic cells", "setting": "[3]; calcipotriol 500 nM", "result": 4.13, "unit": "%"},
      {"measurement": "late apoptic cells", "setting": "[3]; calcipotriol 1,000 nM", "result": 4.19, "unit": "%"},
      {"measurement": "inhibition at 0.005 µM", "setting": "[4]; CCD-1106, 0 h, calcipotriol 5 nM, blue light 0 h", "result": 9, "unit": "%"},
      {"measurement": "inhibition at 0.02 µM", "setting": "[4]; CCD-1106, 0 h, calcipotriol 20 nM, blue light 0 h", "result": 24, "unit": "%"},
      {"measurement": "inhibition at 0.08 µM", "setting": "[4]; CCD-1106, 0 h, calcipotriol 80 nM, blue light 0 h", "result": 45, "unit": "%"},
      {"measurement": "inhibition at 0.32 µM", "setting": "[4]; CCD-1106, 0 h, calcipotriol 320 nM, blue light 0 h", "result": 48, "unit": "%"},
      {"measurement": "inhibition at 1.28 µM", "setting": "[4]; CCD-1106, 0 h, calcipotriol 1,280 nM, blue light 0 h", "result": 43, "unit": "%"},
      {"measurement": "inhibition at 0.005 µM", "setting": "[4]; CCD-1106, 2 h, calcipotriol 5 nM, blue light 2 h", "result": 32, "unit": "%"},
      {"measurement": "inhibition at 0.02 µM", "setting": "[4]; CCD-1106, 2 h, calcipotriol 20 nM, blue light 2 h", "result": 39, "unit": "%"},
      {"measurement": "inhibition at 0.08 µM", "setting": "[4]; CCD-1106, 2 h, calcipotriol 80 nM, blue light 2 h", "result": 55, "unit": "%"},
      {"measurement": "inhibition at 0.32 µM", "setting": "[4]; CCD-1106, 2 h, calcipotriol 320 nM, blue light 2 h", "result": 66, "unit": "%"},
      {"measurement": "inhibition at 1.28 µM", "setting": "[4]; CCD-1106, 2 h, calcipotriol 1,280 nM, blue light 2 h", "result": 62, "unit": "%"},
      {"measurement": "inhibition at 0.005 µM", "setting": "[4]; CCD-1106, 4 h, calcipotriol 5 nM, blue light 4 h", "result": 53, "unit": "%"},
      {"measurement": "inhibition at 0.02 µM", "setting": "[4]; CCD-1106, 4 h, calcipotriol 20 nM, blue light 4 h", "result": 58, "unit": "%"},
      {"measurement": "inhibition at 0.08 µM", "setting": "[4]; CCD-1106, 4 h, calcipotriol 80 nM, blue light 4 h", "result": 70, "unit": "%"},
      {"measurement": "inhibition at 0.32 µM", "setting": "[4]; CCD-1106, 4 h, calcipotriol 320 nM, blue light 4 h", "result": 71, "unit": "%"},
      {"measurement": "inhibition at 1.28 µM", "setting": "[4]; CCD-1106, 4 h, calcipotriol 1,280 nM, blue light 4 h", "result": 69, "unit": "%"},
      {"measurement": "inhibition at 0.005 µM", "setting": "[4]; CCD-1106, 6 h, calcipotriol 5 nM, blue light 6 h", "result": 56, "unit": "%"},
      {"measurement": "inhibition at 0.02 µM", "setting": "[4]; CCD-1106, 6 h, calcipotriol 20 nM, blue light 6 h", "result": 59, "unit": "%"},
      {"measurement": "inhibition at 0.08 µM", "setting": "[4]; CCD-1106, 6 h, calcipotriol 80 nM, blue light 6 h", "result": 71, "unit": "%"},
      {"measurement": "inhibition at 0.32 µM", "setting": "[4]; CCD-1106, 6 h, calcipotriol 320 nM, blue light 6 h", "result": 72, "unit": "%"},
      {"measurement": "inhibition at 1.28 µM", "setting": "[4]; CCD-1106, 6 h, calcipotriol 1,280 nM, blue light 6 h", "result": 66, "unit": "%"},
      {"measurement": "growth inhibition relative to untreated control", "setting": "[4]; calcipotriol 5 nM, blue light 0 h", "result": 6, "unit": "%"},
      {"measurement": "growth inhibition relative to untreated control", "setting": "[4]; calcipotriol 5 nM, blue light 2 h", "result": 33, "unit": "%"},
      {"measurement": "growth inhibition relative to untreated control", "setting": "[4]; calcipotriol 5 nM, blue light 4 h", "result": 47, "unit": "%"},
      {"measurement": "growth inhibition relative to untreated control", "setting": "[4]; calcipotriol 5 nM, blue light 6 h", "result": 51, "unit": "%"},
      {"measurement": "growth inhibition relative to untreated control", "setting": "[4]; calcipotriol 20 nM, blue light 0 h", "result": 17, "unit": "%"},
      {"measurement": "growth inhibition relative to untreated control", "setting": "[4]; calcipotriol 20 nM, blue light 4 h", "result": 52, "unit": "%"},
      {"measurement": "growth inhibition relative to untreated control", "setting": "[4]; calcipotriol 80 nM, blue light 0 h", "result": 35, "unit": "%"},
      {"measurement": "growth inhibition relative to untreated control", "setting": "[4]; calcipotriol 80 nM, blue light 4 h", "result": 64, "unit": "%"},
      {"measurement": "growth inhibition relative to untreated control", "setting": "[4]; calcipotriol 80 nM, blue light 6 h", "result": 67, "unit": "%"},
      {"measurement": "growth inhibition relative to untreated control", "setting": "[4]; calcipotriol 320 nM, blue light 2 h", "result": 60, "unit": "%"},
      {"measurement": "growth inhibition relative to untreated control", "setting": "[4]; calcipotriol 320 nM, blue light 4 h", "result": 67, "unit": "%"},
      {"measurement": "growth inhibition relative to untreated control", "setting": "[4]; calcipotriol 1,280 nM, blue light 0 h", "result": 37, "unit": "%"},
      {"measurement": "growth inhibition relative to untreated control", "setting": "[4]; calcipotriol 1,280 nM, blue light 4 h", "result": 63, "unit": "%"},
      {"measurement": "growth inhibition relative to untreated control", "setting": "[4]; calcipotriol 1,280 nM, blue light 6 h", "result": 67, "unit": "%"},
      {"measurement": "effect of blue light exposure with the drug on cell growth inhibition", "setting": "[4]; for example 6 hours of blue light with 10 nm KX01", "result": "Synergistic effects"}
    ]}
  ]
}
